{
  "source": "patent US11399539B2",
  "about": "“Heterocyclic compound and harmful arthropod controlling agent containing same” (Sumitomo Chemical Company, Limited, priority 2016, dated 2022)",
  "data": [
    {"system": "cabbage aphids (Brevicoryne brassicae)", "assay": "Test Example 8 and Comparative Test: spray on cabbage seedling infested with cabbage aphids", "assay_type": "in vivo", "conditions": "Comparative Test according to Test example 8", "units": {"Controlling value at 500 ppm (%)": "%"}, "values": [
      {"smiles": "CCS(=O)(=O)c1cc(C(F)(F)F)cnc1-n1ccc(C(F)(F)F)cc1=O", "note": "[A-48]", "Controlling value at 500 ppm (%)": 93},
      {"smiles": "CCS(=O)(=O)c1cc(C(F)(F)F)cnc1-n1cnc(C(F)(F)F)cc1=O", "note": "[C-33]", "Controlling value at 500 ppm (%)": 77},
      {"smiles": "O=c1cc(C(F)(F)F)ccn1-c1ncc(C(F)(F)F)cc1Cl", "note": "[Comparative compound 1]", "Controlling value at 500 ppm (%)": 7},
      {"smiles": "O=c1cc(C(F)(F)F)ncn1-c1ncc(C(F)(F)F)cc1Cl", "note": "[Comparative compound 2]", "Controlling value at 500 ppm (%)": 14}
    ]}
  ]
}
